In patent publication US9265707B2, “Cosmetic composition comprising coumestrol or a bean extract containing coumestrol for skin care” (AMOREPACIFIC CORPORATION, priority 2010, dated 2016):

Experiments:
[1] = system: UVB-induced reactive oxygen species (ROS) in keratinocytes; experiment: Scavenging of UVB-induced reactive oxygen species (DCFH-DA fluorescence); assay type: cell-based; details: UVB 30 mJ/cm^2, relative to UV-treated control
Excerpt: 2′,7′-Dichlorodihydrofluorescein diacetate (DCFH-DA; Molecular Probes, Inc., OR, USA) was used to evaluate the coumestrol's effect of scavenging UVB-induced ROS. DCFH-DA is an fat-soluble substance well known as a detector of ROS in cells. It is easily absorbed by cells and turned into water-soluble 2′,7′-dichlorodihydrofluorescein as a result of hydrolysis of the acetate group by esterase in the cells. Since it is turned to 2′,7′-dichlorofluorescein (DCF) which emits fluorescence after reaction with intracellular oxidizing agents, the quantity of intracellular ROS can be evaluated by measuring the intensity of fluorescence from cells treated with DCFH-DA.
Keratinocytes (acquired from Dr. Fusenig at German Cancer Research Center) were seeded onto a 96-well black plate (Greiner BioOne Inc., NC, USA) for fluorescence measurement at a density of 1×10^4 cells per well and cultured for 24 hours. Then, the cells were treated with coumestrol diluted in fresh FBS-free medium to a final concentration of 0.01, 0.1 or 1 μM. After addition of the test substance, the cells were cultured for 24 hours. After removing the remaining medium by washing with HEPES-buffered control salt solution (HCSS), 20 μM DCFH-DA in 100 μL of HCSS was added. […] Then, after adding 100 μL of HCSS, the cells were irradiated with UVB of 30 mJ/cm^2 to induce production of ROS. […] The fluorescence intensity of DCF was measured with the Wallac VICTOR2 fluorometer (Wallac, Turku, Finland) at excitation wavelength of 485 nm and emission wavelength of 530 nm. ROS scavenging effect (%) relative to the control group was calculated from the measured fluorescence intensity.

[2] = system: atopic symptoms; experiment: Improvement of atopic dermatitis (questionnaire, 12 weeks of ointment); assay type: in vivo, human; details: ointment containing 0.1% coumestrol, twice a day, people with atopic symptoms
Excerpt: They were asked to apply the ointment for 12 weeks, twice a day, at the sites of atopic symptoms. 12 weeks later, the improvement of the atopic symptoms was examined using a questionnaire. Improvement of typical symptoms of atopic dermatitis including “itchiness”, “dryness”, “keratinization”, “dandruff”, “erythema”, “swelling”, “skin fissure” and “ooze and eczema” was examined. The subjects were asked to score the improvement of the symptoms and the result was averaged to evaluate the improvement of atopic dermatitis.

[3] = system: Mouse melanocytes (MeI-Ab cells); experiment: Inhibition of melanin production; assay type: cell-based; details: Melanocyte, read-out: Melanin production inhibiting effect (%)
[4] = system: prostaglandin E2 production in human fibroblasts; experiment: Inhibition of prostaglandin E2 (PGE2) production; assay type: cell-based; details: Fibroblast, A23187 and arachidonic acid stimulation, relative to coumestrol-untreated group, average of 5, read-out: Prostaglandin E2 production inhibiting effect (%)
Experimental: The coumestrol's effect of inhibiting prostaglandin E2 production was tested as follows. Human fibroblasts (CAS-C-004-5C, Invitrogen, CA, USA) were cultured for 24 hours in a CO2 incubator. After replacing the medium with a fresh FBS-free medium and culturing for 2 hours, the cells were treated with coumestrol diluted to a final concentration of 0.01, 0.1 or 1 μM in a fresh FBS-free medium. The cells were then cultured for 2 hours at 37° C. in a 5% (v/v) CO2 incubator. Subsequently, after treating with 50 μM Calcium Ionophore A23187 and arachidonic acid for 5 minutes to stimulate prostaglandin E2, the cells were lysed and prostaglandin E2 was quantitated by measuring absorbance at 450 nm using an ELISA reader. The inhibiting effect (%) was calculated relative to the coumestrol-untreated group. Measurement was made 5 times and the result was averaged.

[5] = system: type I pN collagen; experiment: Type I pN collagen synthesis (PIP EIA kit); assay type: cell-based; details: human fibroblasts, 48 hours, untreated control 100
Experimental: Human fibroblasts (CAS-C-004-5C, Invitrogen, CA, USA) were used to evaluate the coumestrol's effect on type I pN collagen synthesis. The cells were seeded onto a 24-well plate at a density of 1×10^4 cells per well and cultured for about 24 hours in a medium containing 10% FBS until ˜about 80% confluency. The cells were treated with coumestrol diluted to a final concentration of 0.01, 0.1 or 1 μM in a fresh FBS-free medium. The synthesized quantity of type I pN collagen was measured using a procollagen type I C-peptide (PIP) EIA kit (MK101; Takara Shuzo, Kyoto, Japan) by collecting a supernatant from the cell culture 48 hours after the treatment with the test substance. The quantity of type I pN collagen was determined from the total protein quantity.

[6] = system: ATP production in human fibroblasts; experiment: ATP production in cells (ATP determination kit); assay type: cell-based; details: 2.5 μM; human fibroblasts treated as in Test Example 4; untreated control 803
Experimental: (§1) Human fibroblasts (CAS-C-004-5C, Invitrogen, CA, USA) were used to evaluate the coumestrol's effect of inhibiting glycation of skin cells. The cells were seeded onto a 6-well plate at a density of 5×10^4 cells per well and cultured for about 24 hours in a medium containing 10% FBS until ˜about 80% confluency. After washing once with PBS and adding 100 μL of PBS, the cells were irradiated with UVB of 50 mJ/cm^2. After removing the PBS, the cells were treated with coumestrol diluted to a final concentration of 2.5 μM in a fresh FBS-free medium. Glycation of skin cells was evaluated using the Oxiselect™ advanced glycation end product (AGE) ELISA kit 24 hours after the treatment with the test substance.
Following treatment of human fibroblasts (CAS-C-004-5C, Invitrogen, CA, USA) as in Test Example 4, ATP production in the cells was evaluated using an ATP determination kit (Invitrogen, A22066).

[7] = system: MMP-1; experiment: Inhibition of UV-induced MMP-1 expression (ELISA); assay type: cell-based; details: Fibroblast, light or radiation study, human fibroblasts, UVB 15 mJ/cm^2, 48 hours, untreated control 100, UV-treated control 132, read-out: MMP1 activity (%)
Experimental: Human fibroblasts (CAS-C-004-5C, Invitrogen, CA, USA) were used to evaluate the coumestrol's effect of inhibiting UV-induced MMP-1 expression. The cells were seeded onto a 24-well plate at a density of 1×10^4 cells per well and cultured for about 24 hours in a medium containing 10% FBS until ˜about 80% confluency. After replacing the medium with an FBS-free medium, the cells were cultured for 24 hours. After washing once with PBS and adding 100 μL of PBS, the cells were irradiated with UVB of 15 mJ/cm^2. After removing the PBS, the cells were treated with coumestrol diluted to a final concentration of 0.01, 0.1 or 1 μM in a fresh FBS-free medium. Expression of MMP-1 was evaluated 48 hours after the treatment with the test substance. The expression of MMP-1 was evaluated using an enzyme-linked immunosorbent assay (ELISA) kit (RPN 2610; Biotrak Amersham Pharmacia Biotech, UK) after collecting a supernatant from the cell culture. The quantity of MMP-1 was determined from the total protein quantity.

[8] = system: transepidermal water loss; experiment: Skin moisturization: transepidermal water loss; assay type: in vivo, human; details: ointment containing 0.1% coumestrol, 24° C., RH 40%
Excerpt: They were asked to apply the ointment for 12 weeks, twice a day, at the sites of atopic symptoms. 12 weeks later, the improvement of the atopic symptoms was examined using a questionnaire. Improvement of typical symptoms of atopic dermatitis including “itchiness”, “dryness”, “keratinization”, “dandruff”, “erythema”, “swelling”, “skin fissure” and “ooze and eczema” was examined. The subjects were asked to score the improvement of the symptoms and the result was averaged to evaluate the improvement of atopic dermatitis. In order to evaluate the improvement of skin moisturizing ability, transepidermal water loss was measured for the subjects of Test Example 9 under constant-temperature, constant-humidity conditions (24° C., RH 40%) using a […].

[9] = system: Cyclooxygenase-2 (COX-2); experiment: Inhibition of COX-2 biosynthesis induced by LPS (western blotting); assay type: cell-based; details: human fibroblasts, 24 hours
Experimental: Human fibroblasts (CAS-C-004-5C, Invitrogen, CA, USA) were used to evaluate the coumestrol's effect of inhibiting COX-2 biosynthesis. The cells were seeded onto a 6-well plate at a density of 5×10^4 cells per well and cultured for about 24 hours in a medium containing 10% FBS until ˜80% confluency. The cells were treated with coumestrol diluted to a final concentration of 0.01, 0.1 or 1 μM in a fresh FBS-free medium and then cultured for 24 hours at 37° C. in a 5% (v/v) CO2 incubator. The cells were harvested and the produced COX-2 was quantitated by western blotting.

[10] = system: advanced glycation end product (AGE) in human fibroblasts; experiment: Inhibition of glycation of skin cells (AGE ELISA); assay type: cell-based; details: 2.5 μM, UVB 50 mJ/cm^2, 24 hours, untreated control 0.156
Experimental: as §1

O=c1oc2cc(O)ccc2c2oc3cc(O)ccc3c12 [Coumestrol, 3,9-dihydroxy-6H-benzofuro(3,2-c)(1)benzopyran-6-one]
ROS scavenging effect (%) ([1]; 0.01 μM): 18.7%
ROS scavenging effect (%) ([1]; 0.1 μM): 25.6%
ROS scavenging effect (%) ([1]; 1 μM): 55.1%
Number of subjects Aggravated [2]: 0
Number of subjects Improved [2]: 8
Number of subjects Not changed [2]: 2
Number of subjects Remarkably improved [2]: 5
inhibition at 0.01 µM [3]: 1.2%
inhibition at 0.1 µM [3]: 24.4%
inhibition at 1 µM [3]: 30.1%
inhibition at 0.01 µM ([4]; 0.01 μM): 12.8%
inhibition at 0.1 µM ([4]; 0.1 μM): 24.8%
inhibition at 1 µM ([4]; 1 μM): 38.2%
Synthesis of type I pN collagen (%) ([5]; 0.01 μM): 115%
Synthesis of type I pN collagen (%) ([5]; 0.1 μM): 126%
Synthesis of type I pN collagen (%) ([5]; 1 μM): 129%
Concentration of ATP [6]: 917 nM
activity at 0.01 µM ([7]; 0.01 μM): 115%
activity at 0.1 µM ([7]; 0.1 μM): 102%
activity at 1 µM ([7]; 1 μM): 98%
Transepidermal water loss (%) ([8]; 1 week later, control 34): 30%
Transepidermal water loss (%) ([8]; 4 weeks later, control 39): 32%
Transepidermal water loss (%) ([8]; 8 weeks later, control 41): 26%
Transepidermal water loss (%) ([8]; 12 weeks later, control 36): 15%
COX-2 expression level (% relative to control) ([9]; 0.01 μM): 89 % relative to control
COX-2 expression level (% relative to control) ([9]; 0.1 μM): 81 % relative to control
COX-2 expression level (% relative to control) ([9]; 1 μM): 64 % relative to control
Concentration of glycation end product [10]: 0.077 µg/mL

Oc1ccc(O)cc1 [Hydroquinone, hydroquinone, reference compound]
inhibition at 10 µM ([3]; 10 μM (positive control), MeI-Ab cells): 41.1%
